Measured values taken from ChEMBL document CHEMBL1125639, “Synthesis and resolution of (+-)-7-chloro-8-hydroxy-1-(3'-iodophenyl)-3-methyl-2,3,4,5-tetrahydro- 1H-3- benzazepine (TISCH): a high affinity and selective iodinated ligand for CNS D1 dopamine receptor” (J Med Chem, 1991).

Species on record: Rattus norvegicus
Format: functional, Striatum, Membrane
Description: Inhibition constant of compound on R-(+)-125[I]-8 radioligand binding to rat striatal membranes

Structure (SMILES)	Ki
CN1CCc2cc(Cl)c(O)cc2C(c2cccc(I)c2)C1 (racemic)	1.07 nM
CN1CCc2cc(Cl)c(O)cc2[C@@H](c2ccccc2)C1 [SCH-23390]	0.28 nM
